# US20140051679A1, “KINASE INHIBITORS AND METHOD OF TREATING CANCER WITH SAME” (UNIVERISTY HEALTH NETWORKS, priority 2011, published 2014)
# Tests used:
# human PLK4 = target: T1, human PLK4 (Homo sapiens, UniProt O00444); assay: PLK4 inhibition assay (indirect ELISA); format: biochemical; settings: GST-PLK4 4 nM, 15 μM ATP; read-out: IC50 Ranges PLK4
# T1 construct: amino terminal GST fusion of residues 1-391 of human PLK4; made in house; host or cells: E. coli
# T1 sequence (O00444 1-391): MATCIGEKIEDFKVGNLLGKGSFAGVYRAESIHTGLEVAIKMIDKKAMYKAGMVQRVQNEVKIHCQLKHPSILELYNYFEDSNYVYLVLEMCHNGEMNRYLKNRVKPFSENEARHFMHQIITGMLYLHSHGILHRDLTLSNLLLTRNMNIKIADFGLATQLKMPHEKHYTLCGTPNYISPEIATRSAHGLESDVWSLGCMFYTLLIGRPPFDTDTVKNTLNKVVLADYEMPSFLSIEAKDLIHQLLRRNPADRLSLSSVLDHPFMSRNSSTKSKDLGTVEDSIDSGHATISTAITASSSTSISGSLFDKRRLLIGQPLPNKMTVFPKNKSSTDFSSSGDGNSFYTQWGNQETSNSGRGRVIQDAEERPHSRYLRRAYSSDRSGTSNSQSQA
# Method in brief: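 Compounds were tested either at a single 10 μM dose or across 10-point titrations (typically 0.5 to 0.001 μM), preincubated 15 min with 4 nM GST-PLK4 (human 1-391, dephosphorylated) before 15 μM ATP was added. MBP substrate phosphorylation over 30 min, pH 7.5 HEPES/MgCl2 buffer, read by HRP/TMB ELISA (450 nm). % inhibition vs. high-activity control; IC50 by logistic fit.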
# [1] = tested on: MDA-MB-231 breast cancer cells; assay: Cell growth inhibition, Sulforhodamine B assay, MDA-MB-231; format: cell-based; settings: Homo sapiens, 120 h, 5 days culture, SRB assay, read-out: Cell Line GI50 Range MDA-MB-231
# [2] = tested on: HCT116 colon cancer cells; assay: Cell growth inhibition, Sulforhodamine B assay, HCT116; format: cell-based; settings: Homo sapiens, HCT-116, 120 h, 5 days culture, SRB assay, read-out: Cell Line GI50 Range HCT116
# [3] = tested on: OVCAR-3 ovarian cancer cells; assay: Cell growth inhibition, Sulforhodamine B assay, OVCAR-3; format: cell-based; settings: Homo sapiens, 120 h, 5 days culture, SRB assay, read-out: Cell Line GI50 Range OVCAR-3
# [4] = tested on: MDA-MB-468 breast cancer cells; assay: Cell growth inhibition, Sulforhodamine B assay, MDA-MB-468; format: cell-based; settings: Homo sapiens, 120 h, 5 days culture, SRB assay, read-out: Cell Line GI50 Range MDA-MB-468
# human TTK = target: T2, human TTK (Homo sapiens, UniProt P33981); assay: TTK inhibition assay (indirect ELISA); format: biochemical; settings: GST-TTK 0.68 nM, 16 μM ATP; read-out: IC50 Ranges TTK
# T2 construct: amino terminal GST fusion of full length human TTK; purchased Invitrogen
# T2 sequence (P33981 1-857): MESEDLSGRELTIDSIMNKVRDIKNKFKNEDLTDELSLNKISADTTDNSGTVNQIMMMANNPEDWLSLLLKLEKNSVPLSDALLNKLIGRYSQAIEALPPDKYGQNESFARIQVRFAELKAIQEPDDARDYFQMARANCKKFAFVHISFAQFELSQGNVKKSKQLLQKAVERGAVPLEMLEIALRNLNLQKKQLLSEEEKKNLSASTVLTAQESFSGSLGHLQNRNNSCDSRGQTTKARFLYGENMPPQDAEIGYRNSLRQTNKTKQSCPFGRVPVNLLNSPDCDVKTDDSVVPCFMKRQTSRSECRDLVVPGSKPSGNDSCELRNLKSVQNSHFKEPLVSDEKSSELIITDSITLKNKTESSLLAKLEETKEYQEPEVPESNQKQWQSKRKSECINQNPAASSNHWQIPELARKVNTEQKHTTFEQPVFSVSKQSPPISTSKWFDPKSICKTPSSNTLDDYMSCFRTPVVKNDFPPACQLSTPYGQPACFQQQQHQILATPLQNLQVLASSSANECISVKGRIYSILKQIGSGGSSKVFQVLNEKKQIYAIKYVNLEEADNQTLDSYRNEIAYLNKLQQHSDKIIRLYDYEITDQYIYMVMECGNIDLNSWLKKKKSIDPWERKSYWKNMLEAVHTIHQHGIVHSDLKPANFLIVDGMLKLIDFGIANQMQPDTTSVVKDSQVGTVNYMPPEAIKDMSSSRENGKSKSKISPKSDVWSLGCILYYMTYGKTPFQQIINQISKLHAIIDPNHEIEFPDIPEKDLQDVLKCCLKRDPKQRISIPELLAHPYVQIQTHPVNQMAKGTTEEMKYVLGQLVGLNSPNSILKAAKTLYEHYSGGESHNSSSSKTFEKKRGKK
# Aurora B = target: T3, Aurora B (Homo sapiens, UniProt Q96GD4); assay: Aurora B inhibition assay (Z-Lyte); format: biochemical; settings: 28 nM Aurora B, 128 μM ATP; read-out: IC50 Ranges Aurora B
# T3 construct: purchased Invitrogen PV3970
# Procedure: Aurora B inhibition was determined using the Z-Lyte assay kit from Invitrogen. The assay was performed using the recommended manufacturer's instructions with 128 μM ATP and 28 nM Aurora B (Invitrogen cat #PV3970). The % inhibition values were determined according to the manufacturer's directions and IC50 values were obtained using a non-linear 4 point logistic curve fit (XLfit4, IDBS)
# HT29 colon cancer cells = assay: Cell growth inhibition, Sulforhodamine B assay, HT29; format: cell-based; settings: Homo sapiens, HT-29, 120 h, 5 days culture, SRB assay, read-out: Cell Line GI50 Range HT29
# T3 sequence (Q96GD4 whole entry): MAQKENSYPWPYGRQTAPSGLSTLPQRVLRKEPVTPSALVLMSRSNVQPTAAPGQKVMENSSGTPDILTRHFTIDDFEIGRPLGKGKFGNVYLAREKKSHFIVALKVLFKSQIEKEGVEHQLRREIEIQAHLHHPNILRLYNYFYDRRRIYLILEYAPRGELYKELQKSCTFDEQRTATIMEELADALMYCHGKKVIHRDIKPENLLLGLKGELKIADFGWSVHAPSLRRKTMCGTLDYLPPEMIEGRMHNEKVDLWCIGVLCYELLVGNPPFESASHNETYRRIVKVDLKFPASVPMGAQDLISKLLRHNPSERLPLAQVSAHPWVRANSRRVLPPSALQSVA
Compound,IC50 (human PLK4) [µM],GI50 [1] [µM],GI50 [2] [µM],GI50 [3] [µM],GI50 [4] [µM],IC50 (human TTK) [µM],IC50 (Aurora B) [µM],GI50 (HT29 colon cancer cells) [µM]
"O=C(Nc1ccc2[nH]nc(-c3ccc(OC4CCNCC4)c(Cl)c3)c2c1)C(c1ccsc1)N1CCCC1 (stereo not shown) [Example A34, N-(3-(3-chloro-4-(piperidin-4-yloxy)phenyl)-1H-indazol-5-yl)-2-(pyrrolidin-1-yl)-2-(thiophen-3-yl)acetamide]",≤ 5,≤ 5,≤ 5,≤ 5,≤ 5,≤ 5,≤ 5,≤ 5
"CN1CCN(Cc2ccc(-c3n[nH]c4ccc(NC(=O)C(c5ccsc5)N5CCCC5)cc34)cc2)CC1 (stereo not shown) [Example A67, N-(3-(4-((4-methylpiperazin-1-yl)methyl)phenyl)-1H-indazol-5-yl)-2-(pyrrolidin-1-yl)-2-(thiophen-3-yl)acetamide]",≤ 5,≤ 5,≤ 5,5 to 20,≤ 5,≤ 5,,≤ 5
"O=C(Nc1ccc2[nH]nc(-c3ccc(NC4CCCCC4)cc3)c2c1)C(c1ccsc1)N1CCCC1 (stereo not shown) [Example A68, N-(3-(4-(cyclohexylamino)phenyl)-1H-indazol-5-yl)-2-(pyrrolidin-1-yl)-2-(thiophen-3-yl)acetamide]",≤ 5,≤ 5,≤ 5,≤ 5,≤ 5,≤ 5,,≤ 5
"CN1CCC(Oc2ccc(-c3n[nH]c4ccc(NC(=O)N5CCCc6ccccc65)cc34)cc2)CC1 [Example A73, N-(3-(4-((1-methylpiperidin-4-yl)oxy)phenyl)-1H-indazol-5-yl)-3,4-dihydroquinoline-1(2H)-carboxamide]",≤ 5,≤ 5,≤ 5,5 to 20,≤ 5,≤ 5,,≤ 5
"CN1CCC(Oc2ccc(-c3n[nH]c4ccc(C(=O)NCC(C)(C)N5CCOCC5)cc34)cc2)CC1 [Example A74, N-(2-methyl-2-morpholinopropyl)-3-(4-((1-methylpiperidin-4-yl)oxy)phenyl)-1H-indazole-5-carboxamide]",≤ 5,5 to 20,≤ 5,20 to 50,≤ 5,≤ 5,,≤ 5
"CN1CCC(Oc2ccc(-c3n[nH]c4ccc(C(=O)NCC(c5ccsc5)N5CCOCC5)cc34)cc2)CC1 (stereo not shown) [Example A75, 3-(4-((1-methylpiperidin-4-yl)oxy)phenyl)-N-(2-morpholino-2-(thiophen-3-yl)ethyl)-1H-indazole-5-carboxamide]",≤ 5,5 to 20,≤ 5,5 to 20,≤ 5,≤ 5,,≤ 5

# The remaining lines, values ahead:
IC50 (human PLK4) [µM],GI50 [1] [µM],GI50 [2] [µM],GI50 [3] [µM],GI50 [4] [µM],IC50 (human TTK) [µM],IC50 (Aurora B) [µM],GI50 (HT29 colon cancer cells) [µM],Compound
≤ 5,≤ 5,≤ 5,5 to 20,≤ 5,≤ 5,≤ 5,≤ 5,"O=C(Nc1ccc2[nH]nc(-c3ccc(OC4CCNCC4)cc3)c2c1)C(c1ccsc1)N1CCCC1 (stereo not shown) [Example A28, N-(3-(4-(piperidin-4-yloxy)phenyl)-1H-indazol-5-yl)-2-(pyrrolidin-1-yl)-2-(thiophen-3-yl)acetamide]"
≤ 5,≤ 5,≤ 5,≤ 5,≤ 5,≤ 5,≤ 5,≤ 5,"CC(C)N1CCC(Oc2ccc(-c3n[nH]c4ccc(NC(=O)C(c5ccsc5)N5CCCC5)cc34)cc2)CC1 (stereo not shown) [Example A30, N-(3-(4-((1-isopropylpiperidin-4-yl)oxy)phenyl)-1H-indazol-5-yl)-2-(pyrrolidin-1-yl)-2-(thiophen-3-yl)acetamide]"
≤ 5,≤ 5,≤ 5,≤ 5,≤ 5,≤ 5,≤ 5,≤ 5,"CN1CCC(Oc2ccc(-c3n[nH]c4ccc(NC(=O)C(c5ccsc5)N5CCCCC5)cc34)cc2)CC1 (stereo not shown) [Example A31, N-(3-(4-((1-methylpiperidin-4-yl)oxy)phenyl)-1H-indazol-5-yl)-2-(piperidin-1-yl)-2-(thiophen-3-yl)acetamide]"
≤ 5,20 to 50,≤ 5,5 to 20,≤ 5,≤ 5,≤ 5,≤ 5,"O=C(Nc1ccc2[nH]nc(-c3ccc(N4CCOCC4)cc3)c2c1)C(c1ccsc1)N1CCCCC1 (stereo not shown) [Example A32, N-(3-(4-morpholinophenyl)-1H-indazol-5-yl)-2-(piperidin-1-yl)-2-(thiophen-3-yl)acetamide]"
≤ 5,≤ 5,≤ 5,≤ 5,≤ 5,≤ 5,,≤ 5,"CN1CCC(Oc2ccc(-c3n[nH]c4ccc(NC(=O)Nc5ccccc5Cl)cc34)cc2)CC1 [Example A62, 1-(2-chlorophenyl)-3-(3-(4-((1-methylpiperidin-4-yl)oxy)phenyl)-1H-indazol-5-yl)urea]"
≤ 5,5 to 20,≤ 5,20 to 50,5 to 20,≤ 5,,≤ 5,"Cc1cc(-c2n[nH]c3ccc(C(=O)NC(c4ccccc4)C4CC4)cc23)ccc1N1CCOCC1 (stereo not shown) [Example A64, N-(cyclopropyl(phenyl)methyl)-3-(3-methyl-4-morpholinophenyl)-1H-indazole-5-carboxamide]"
≤ 5,≤ 5,≤ 5,5 to 20,≤ 5,≤ 5,,≤ 5,"O=C(NC(c1ccccc1)C1CC1)c1ccc2[nH]nc(-c3ccc(N4CCOCC4)c(F)c3)c2c1 (stereo not shown) [Example A65, N-(cyclopropyl(phenyl)methyl)-3-(3-fluoro-4-morpholinophenyl)-1H-indazole-5-carboxamide]"
≤ 5,5 to 20,≤ 5,5 to 20,5 to 20,≤ 5,,≤ 5,"O=C(Nc1ccc2[nH]nc(-c3ccc(N4CCOCC4)cc3)c2c1)Nc1ccccc1Cl [Example A66, 1-(2-chlorophenyl)-3-(3-(4-morpholinophenyl)-1H-indazol-5-yl)urea]"
